Measurements reported in patent US11834450B2, “Compounds having ((3-nitrophenyl)sulfonyl)acetamide as BCL-2 inhibitors” (Eil Therapeutics, Inc., priority 2021, dated 2023).

Experiments:
[1] = target: T1, BCL-2 (Homo sapiens, UniProt P10415); assay: BCL-2 TR-FRET Assay (primary PPI inhibition); format: binding; details: 60 min incubation; read-out: BCL2 (IC50 code, BCL-2 TR-FRET)
T1 construct: purchased BPS Bioscience #50222

[2] = Cell viability assay HEK293 (CellTiter-Glo); format: cell-based; details: human, HEK293 cells, read-out: HEK293 (CC50 code)
Outline: (§1)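 Cells were seeded at 2000/well (HEK293, in DMEM, pre-incubated a day) or 4000/well (other lines, in RPMI-1640). Serially diluted compound was added and plates incubated 3 days at 37 °C, with viability read by CellTiter-Glo luminescence.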

[3] = test system: caspase-3 and -7 activities in RS4-11 cells; assay: Cas-3/7 activation (Caspase-Glo 3/7) in RS4-11 cells; format: cell-based; details: Homo sapiens, 3.5 h at 37° C. and 30 min at r.t., read-out: Cas-3/7 (EC50 code)
Outline: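 RS4-11 cells were exposed to graded compound concentrations for 3.5 h at 37° C/5% CO2, then 30 min at room temperature. Caspase-3/7 activity was measured by luminescence after 30 min with a DEVD luminogenic substrate reagent.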

[4] = test system: MOLT-4 cells; assay: Cell viability assay MOLT-4 (CellTiter-Glo); format: cell-based; details: Homo sapiens, 72 h; MOLT-4 cells, 3 days, CellTiter-Glo; read-out: MOLT-4 (CC50 code)
Outline: as §1

[5] = target: T2, BCL-XL (Homo sapiens, UniProt Q07817); assay: BCL-XL TR-FRET Assay (primary PPI inhibition); format: binding; details: 60 min incubation; read-out: BCLxL (IC50 code, BCL-XL TR-FRET)
T2 construct: purchased BPS Bioscience #50223
T2 sequence (Q07817 whole entry): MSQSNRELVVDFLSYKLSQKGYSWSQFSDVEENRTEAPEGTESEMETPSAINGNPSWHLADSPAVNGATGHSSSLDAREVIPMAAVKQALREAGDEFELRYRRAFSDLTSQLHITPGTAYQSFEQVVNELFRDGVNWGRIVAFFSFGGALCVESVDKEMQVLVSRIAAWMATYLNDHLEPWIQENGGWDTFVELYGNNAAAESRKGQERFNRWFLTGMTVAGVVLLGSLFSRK
Outline: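 10.5 ng His-tagged BCL-XL incubated 60 min with test compound, BCL-XL peptide ligand (1:80), Tb-labelled anti-His donor and dye-labelled acceptor (each 1:100). Displacement read as TR-FRET, excitation 340 nm, emission 620 and 665 nm, 60 μs delay, 500 μs integration.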

[6] = test system: RS4-11 cells; assay: Cell viability assay RS4-11 (CellTiter-Glo); format: cell-based; details: Homo sapiens, 72 h; RS4-11 cells, 3 days, CellTiter-Glo; read-out: RS4-11 (CC50 code)
Outline: as §1

T1 sequence (P10415 whole entry): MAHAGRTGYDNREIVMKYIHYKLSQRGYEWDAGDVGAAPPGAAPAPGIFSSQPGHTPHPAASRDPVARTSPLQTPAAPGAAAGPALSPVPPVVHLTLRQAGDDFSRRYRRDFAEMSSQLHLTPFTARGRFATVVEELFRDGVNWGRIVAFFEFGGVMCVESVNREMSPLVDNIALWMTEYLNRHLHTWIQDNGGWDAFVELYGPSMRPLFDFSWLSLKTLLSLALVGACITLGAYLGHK

| SMILES | IC50 [1] [nM] | CC50 at 3 days [2] [nM] | EC50 [3] [nM] | CC50 [4] [nM] | IC50 [5] [nM] | CC50 [6] [nM] |
| --- | --- | --- | --- | --- | --- | --- |
| O=C(NS(=O)(=O)c1ccc(NCC2CCOCC2)c([N+](=O)[O-])c1)c1ccc(N2CCN(C[C@@H]3Cc4ccccc4CN3C(=O)c3ccsc3)CC2)cc1Oc1cnc2[nH]ccc2c1 [Compound 36, N-[3-nitro-4-(tetrahydropyran-4-ylmethylamino)phenyl]sulfonyl-2 (1H-pyrrolo[2,3-b]pyridin-5-yloxy)-4-[4-[[(3S)-2-(thiophene-3 carbonyl)-3,4-dihydro-1H-isoquinolin-3-yl]methyl]piperazin 1-yl]benzamide] | > 50 | 10000 to 25000 | > 250 | 2000 to 10000 | > 4000 | > 200 |
| CC1=CC[C@@H](CN2CCN(c3ccc(C(=O)NS(=O)(=O)c4ccc(NCC5CCOCC5)c([N+](=O)[O-])c4)c(Oc4cnc5[nH]ccc5c4)c3)CC2)[C@H](c2ccc(Cl)cc2)C1 [Compound 54, 4-[4-[[(1R,6R)-6-(4-chlorophenyl)-4-methyl-cyclohex-3-en-1-yl]methyl]piperazin-1-yl]-N-[3-nitro-4-(tetrahydropyran-4-ylmethylamino)phenyl]sulfonyl-2-(1H-pyrrolo[2,3-b]pyridin-5-yloxy)benzamide] | 10 to 50 | 10000 to 25000 | 100 to 250 | 2000 to 10000 | 2000 to 4000 | 100 to 200 |
| O=C(NS(=O)(=O)c1ccc(NCC2CCOCC2)c([N+](=O)[O-])c1)c1ccc(N2CCN(C[C@@H]3Cc4ccccc4CN3C(=O)C3CC3)CC2)cc1Oc1cnc2[nH]ccc2c1 [Compound 5, 4-[4-[[(3S)-2-(cyclopropanecarbonyl)-3,4-dihydro-1H-isoquinolin-3-yl]methyl]piperazin-1-yl]-N-[3-nitro-4-(tetrahydropyran-4-ylmethylamino)phenyl]sulfonyl-2-(1H-pyrrolo[2,3-b]pyridin-5-yloxy)benzamide] | 10 to 50 | > 25000 | > 250 | 2000 to 10000 | ≤ 2000 | > 200 |
| O=C(NS(=O)(=O)c1ccc(NCC2CCOCC2)c([N+](=O)[O-])c1)c1ccc(N2CCN(C[C@@H]3Cc4ccccc4CN3C(=O)c3ccc(Cl)s3)CC2)cc1Oc1cnc2[nH]ccc2c1 [Compound 35, 4-[4-[[(3S)-2-(5-chlorothiophene-2-carbonyl)-3,4-dihydro-1H-isoquinolin-3-yl]methyl]piperazin-1-yl]-N-[3-nitro-4-(tetrahydropyran-4-ylmethylamino)phenyl]sulfonyl-2-(1H-pyrrolo[2,3-b]pyridin-5-yloxy)benzamide] | > 50 | > 25000 | > 250 | 2000 to 10000 | > 4000 | > 200 |
| CC1(O)CC[C@@H](CN2CCN(c3ccc(C(=O)NS(=O)(=O)c4ccc(NCC5CCOCC5)c([N+](=O)[O-])c4)c(Oc4cnc5[nH]ccc5c4)c3)CC2)[C@H](c2ccc(Cl)cc2)C1 (stereo partly drawn) [Compound 52, 4-[4-[[(1R,2R)-2-(4-chlorophenyl)-4-hydroxy-4-methyl-cyclohexyl]methyl]piperazin-1-yl]-N-[3-nitro-4-(tetrahydropyran-4-ylmethylamino)phenyl]sulfonyl-2-(1H-pyrrolo[2,3-b]pyridin-5-yloxy)benzamide] | 5 to 10 | 10000 to 25000 | ≤ 100 | 2000 to 10000 | ≤ 2000 | < 100 |
| CN1C(=O)CC[C@H](CN2CCN(c3ccc(C(=O)NS(=O)(=O)c4ccc(NCC5CCOCC5)c([N+](=O)[O-])c4)c(Oc4cnc5[nH]ccc5c4)c3)CC2)[C@H]1c1ccc(Cl)cc1 [Compound 72, 4-[4-[[(2S,3R)-2-(4-chlorophenyl)-1-methyl-6-oxo-3-piperidyl]methyl]piperazin-1-yl]-N-[3-nitro-4-(tetrahydropyran-4-ylmethylamino)phenyl]sulfonyl-2-(1H-pyrrolo[2,3-b]pyridin-5-yloxy)benzamide] | > 50 | > 25000 | > 250 | > 10000 | ≤ 2000 | > 200 |
| CC(C)C(=O)N1C[C@@H](CN2CCN(c3ccc(C(=O)NS(=O)(=O)c4ccc(NCC5CCOCC5)c([N+](=O)[O-])c4)c(Oc4cnc5[nH]ccc5c4)c3)CC2)[C@H](c2ccc(Cl)cc2)C1 [Compound 58, 4-[4-[[(3R,4R)-4-(4-chlorophenyl)-1-(2-methylpropanoyl)pyrrolidin-3-yl]methyl]piperazin-1-yl]-N-[3-nitro-4-(tetrahydropyran-4-ylmethylamino)phenyl]sulfonyl-2-(1H-pyrrolo[2,3-b]pyridin-5-yloxy)benzamide] | 10 to 50 | > 25000 | > 250 | 2000 to 10000 | > 4000 | > 200 |
| O=C(NS(=O)(=O)c1ccc(NC2CCS(=O)(=O)CC2)c([N+](=O)[O-])c1)c1ccc(N2CCC(CN3CCCCC3c3ccc(Cl)cc3)CC2)cc1Oc1cnc2[nH]ccc2c1 (stereo not drawn) [Compound 79, 4-[4-[[2-(4-chlorophenyl)-1-piperidyl]methyl]-1-piperidyl]-N-[4-[(1,1-dioxothian-4-yl)amino]-3-nitro-phenyl]sulfonyl-2-(1H-pyrrolo[2,3-b]pyridin-5-yloxy)benzamide] | > 50 | > 25000 | > 250 | 2000 to 10000 | > 4000 | > 200 |
| O=C(NS(=O)(=O)c1ccc(NCC2CCOCC2)c([N+](=O)[O-])c1)c1ccc(N2CCN(C[C@@H]3Cc4ccc(F)cc4CN3C(=O)C3CC3)CC2)cc1Oc1cnc2[nH]ccc2c1 [Compound 50, 4-[4-[[(3S)-2-(cyclopropanecarbonyl)-7-fluoro-3,4-dihydro-1H-isoquinolin-3-yl]methyl]piperazin-1-yl]-N-[3-nitro-4-(tetrahydropyran-4-ylmethylamino)phenyl]sulfonyl-2-(1H-pyrrolo[2,3-b]pyridin-5-yloxy)benzamide] | > 50 | > 25000 | > 250 | > 10000 | > 4000 | > 200 |
| O=C(NS(=O)(=O)c1ccc(NCC2CCOCC2)c([N+](=O)[O-])c1)c1ccc(N2CCN(C[C@H]3Cc4ccccc4CN3C(=O)c3ccsc3)CC2)cc1Oc1cnc2[nH]ccc2c1 [Compound 59, N-[3-nitro-4-(tetrahydropyran-4-ylmethylamino)phenyl]sulfonyl-2-(1H-pyrrolo[2,3-b]pyridin-5-yloxy)-4-[4-[[(3R)-2-(thiophene-3-carbonyl)-3,4-dihydro-1H-isoquinolin-3-yl]methyl]piperazin-1-yl]benzamide] | 10 to 50 | > 25000 | > 250 | 2000 to 10000 | 2000 to 4000 | > 200 |
| O=C(NS(=O)(=O)c1ccc(NCC2CCOCC2)c([N+](=O)[O-])c1)c1ccc(N2CCC(CN3Cc4ccccc4CC3c3ccccc3)CC2)cc1Oc1cnc2[nH]ccc2c1 (stereo not drawn) [Compound 41, N-[3-nitro-4-(tetrahydropyran-4-ylmethylamino)phenyl]sulfonyl-4-[4-[(3-phenyl-3,4-dihydro-1H-isoquinolin-2-yl)methyl]-1-piperidyl]-2-(1H-pyrrolo[2,3-b]pyridin-5-yloxy)benzamide] | > 50 | > 25000 | > 250 | 2000 to 10000 | > 4000 | > 200 |
| O=C(NS(=O)(=O)c1ccc(NCC2CCOCC2)c([N+](=O)[O-])c1)c1ccc(N2CCC(CN3C(=O)C4(CCNCC4)C3c3ccc(Cl)cc3)CC2)cc1Oc1cnc2[nH]ccc2c1 (stereo not drawn) [Compound 56, 4-[4-[[1-(4-chlorophenyl)-3-oxo-2,7-diazaspiro[3.5]nonan-2-yl]methyl]-1-piperidyl]-N-[3-nitro-4-(tetrahydropyran-4-ylmethylamino)phenyl]sulfonyl-2-(1H-pyrrolo[2,3-b]pyridin-5-yloxy)benzamide] | 10 to 50 | > 25000 | > 250 | > 10000 | 2000 to 4000 | > 200 |
| O=C(NS(=O)(=O)c1ccc(NCC2CCOCC2)c([N+](=O)[O-])c1)c1ccc(N2CCN(CC(O)(c3ccccc3)c3ccc(F)c(F)c3)CC2)cc1Oc1cnc2[nH]ccc2c1 (stereo not drawn) [Compound 11, 4-[4-[2-(3,4-difluorophenyl)-2-hydroxy-2-phenyl-ethyl]piperazin-1-yl]-N-[3-nitro-4-(tetrahydropyran-4-ylmethylamino)phenyl]sulfonyl-2-(1H-pyrrolo[2,3-b]pyridin-5-yloxy)benzamide] | > 50 | > 25000 | > 250 | 2000 to 10000 | > 4000 | > 200 |
